Measurements published in PMC8231556, “Inhibiting Endothelial Cell Function in Normal and Tumor Angiogenesis Using BMP Type I Receptor Macrocyclic Kinase Inhibitors” (Cancers, 2021).

Legend:
SIK2 = target: T1, SIK2 (Homo sapiens, UniProt Q9H0K1); experiment: radiometric kinase profiling (33 PanQinase); assay type: biochemical; settings: read-out: Inhibitory effect (%) SIK2
T1 construct: purchased ProQinase (33PanQinase Activity Assay)
Outline: (§1)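 Enzyme/substrate mixes were incubated with [γ-33P]-ATP and compound (added as a 0.1 μM solution in 10% DMSO) at 30 °C for 60 min, then stopped with H3PO4 and washed with NaCl. 33P incorporation was scintillation-counted, and residual activity (%) was normalized to untreated control and background.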

MAP4K5 = target: T2, MAP4K5 (Homo sapiens, UniProt Q9Y4K4); experiment: radiometric kinase profiling (33 PanQinase); assay type: biochemical; settings: read-out: Inhibitory effect (%) MAP4K5
T2 construct: purchased ProQinase (33PanQinase Activity Assay)
Outline: as §1

BRAF = target: T3, BRAF (Homo sapiens, UniProt P15056); experiment: radiometric kinase profiling (33 PanQinase); assay type: biochemical; settings: read-out: Inhibitory effect (%) BRAF
T3 construct: purchased Proqinase, Germany
Outline: as §1

MAP4K4 = target: T4, MAP4K4 (Homo sapiens, UniProt O95819); experiment: radiometric kinase profiling (33 PanQinase); assay type: biochemical; settings: read-out: Inhibitory effect (%) MAP4K4
T4 construct: purchased ProQinase (33PanQinase Activity Assay)
T4 sequence (O95819 whole entry): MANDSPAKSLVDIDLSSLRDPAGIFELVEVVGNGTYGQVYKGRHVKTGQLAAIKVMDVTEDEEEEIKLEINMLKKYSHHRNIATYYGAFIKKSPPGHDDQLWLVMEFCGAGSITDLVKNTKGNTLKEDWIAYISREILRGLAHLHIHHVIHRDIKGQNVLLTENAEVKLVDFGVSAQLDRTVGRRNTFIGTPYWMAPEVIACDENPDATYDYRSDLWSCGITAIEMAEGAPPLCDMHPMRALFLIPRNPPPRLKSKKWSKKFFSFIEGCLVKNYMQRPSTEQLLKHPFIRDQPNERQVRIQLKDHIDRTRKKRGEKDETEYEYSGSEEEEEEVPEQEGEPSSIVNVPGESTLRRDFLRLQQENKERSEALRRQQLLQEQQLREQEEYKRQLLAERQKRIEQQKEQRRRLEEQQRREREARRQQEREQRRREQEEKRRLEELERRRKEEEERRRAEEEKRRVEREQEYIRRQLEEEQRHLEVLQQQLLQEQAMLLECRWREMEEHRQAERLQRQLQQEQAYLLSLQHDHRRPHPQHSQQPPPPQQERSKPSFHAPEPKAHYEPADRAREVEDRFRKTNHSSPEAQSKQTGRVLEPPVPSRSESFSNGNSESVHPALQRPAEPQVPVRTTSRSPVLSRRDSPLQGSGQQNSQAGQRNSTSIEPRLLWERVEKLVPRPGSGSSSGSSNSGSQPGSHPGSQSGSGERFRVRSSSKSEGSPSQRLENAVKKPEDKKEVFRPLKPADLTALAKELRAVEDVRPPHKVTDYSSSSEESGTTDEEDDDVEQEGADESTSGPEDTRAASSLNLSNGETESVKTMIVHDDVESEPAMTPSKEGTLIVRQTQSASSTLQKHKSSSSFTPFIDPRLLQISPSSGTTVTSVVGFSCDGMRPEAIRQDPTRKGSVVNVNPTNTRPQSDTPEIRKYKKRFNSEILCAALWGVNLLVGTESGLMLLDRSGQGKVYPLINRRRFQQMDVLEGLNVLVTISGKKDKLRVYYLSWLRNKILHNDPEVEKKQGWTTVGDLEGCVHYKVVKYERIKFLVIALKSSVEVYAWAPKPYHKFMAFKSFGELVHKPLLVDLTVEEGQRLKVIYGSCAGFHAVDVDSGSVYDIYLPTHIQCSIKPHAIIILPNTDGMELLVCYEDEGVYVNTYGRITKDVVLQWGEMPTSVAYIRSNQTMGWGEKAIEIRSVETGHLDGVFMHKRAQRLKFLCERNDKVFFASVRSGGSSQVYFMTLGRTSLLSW
Outline: as §1

FLT3 = target: T5, FLT3 (Homo sapiens, UniProt P36888); experiment: radiometric kinase profiling (33 PanQinase); assay type: biochemical; settings: read-out: Inhibitory effect (%) FLT3
T5 construct: purchased ProQinase (33PanQinase Activity Assay)
T5 sequence (P36888 27-993): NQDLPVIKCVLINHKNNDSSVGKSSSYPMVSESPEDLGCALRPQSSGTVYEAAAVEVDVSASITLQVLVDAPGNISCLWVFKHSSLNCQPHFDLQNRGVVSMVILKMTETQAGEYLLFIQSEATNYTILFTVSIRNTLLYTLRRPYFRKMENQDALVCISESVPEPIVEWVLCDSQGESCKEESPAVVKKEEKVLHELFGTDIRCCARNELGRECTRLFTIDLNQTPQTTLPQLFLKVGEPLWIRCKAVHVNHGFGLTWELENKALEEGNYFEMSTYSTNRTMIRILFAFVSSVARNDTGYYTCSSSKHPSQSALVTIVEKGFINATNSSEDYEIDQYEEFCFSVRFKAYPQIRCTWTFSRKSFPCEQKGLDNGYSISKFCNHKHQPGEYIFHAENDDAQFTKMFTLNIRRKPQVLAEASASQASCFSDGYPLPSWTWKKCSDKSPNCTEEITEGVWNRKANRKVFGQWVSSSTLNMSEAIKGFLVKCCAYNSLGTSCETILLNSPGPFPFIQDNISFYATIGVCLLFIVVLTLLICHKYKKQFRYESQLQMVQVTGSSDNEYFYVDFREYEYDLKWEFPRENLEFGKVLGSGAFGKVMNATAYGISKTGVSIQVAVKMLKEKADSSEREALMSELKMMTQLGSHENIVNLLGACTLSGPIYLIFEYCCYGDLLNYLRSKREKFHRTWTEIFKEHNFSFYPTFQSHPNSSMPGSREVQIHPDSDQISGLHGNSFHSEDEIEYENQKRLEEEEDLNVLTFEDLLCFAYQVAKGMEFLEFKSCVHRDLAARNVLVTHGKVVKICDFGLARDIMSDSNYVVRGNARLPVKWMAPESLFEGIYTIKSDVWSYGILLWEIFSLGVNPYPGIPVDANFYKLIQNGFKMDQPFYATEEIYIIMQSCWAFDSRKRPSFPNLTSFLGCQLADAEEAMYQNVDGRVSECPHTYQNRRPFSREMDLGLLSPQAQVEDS
Outline: as §1

FGFR3 = target: T6, FGFR3 (Homo sapiens, UniProt P22607); experiment: radiometric kinase profiling (33 PanQinase); assay type: biochemical; settings: read-out: Inhibitory effect (%) FGFR3
T6 construct: purchased ProQinase (33PanQinase Activity Assay)
Outline: as §1

ALK5 = ALK5 (Homo sapiens, UniProt P36897); experiment: radiometric protein kinase assay, affinity (Kd); assay type: binding
Chain of ALK5 (P36897 34-503): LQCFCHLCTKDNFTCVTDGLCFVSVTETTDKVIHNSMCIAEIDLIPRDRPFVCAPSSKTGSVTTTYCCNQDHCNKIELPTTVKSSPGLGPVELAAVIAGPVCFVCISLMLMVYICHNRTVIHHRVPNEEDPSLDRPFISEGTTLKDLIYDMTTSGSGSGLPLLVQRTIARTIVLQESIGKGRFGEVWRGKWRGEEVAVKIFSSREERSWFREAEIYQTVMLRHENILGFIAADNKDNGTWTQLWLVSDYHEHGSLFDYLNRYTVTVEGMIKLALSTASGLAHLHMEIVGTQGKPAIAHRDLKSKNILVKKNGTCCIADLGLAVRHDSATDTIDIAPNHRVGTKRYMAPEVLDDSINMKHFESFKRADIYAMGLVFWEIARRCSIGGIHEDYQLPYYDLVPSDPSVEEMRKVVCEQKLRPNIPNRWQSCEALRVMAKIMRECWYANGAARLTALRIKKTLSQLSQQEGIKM
Procedure: (§2) The binding interaction profile of the compounds for ALK1–6, ACVR2A, ACVR2B, and TGFβR2 was determined by using radiometric protein kinase assay. For each compound, ten different concentrations (from 3 × 10^−6 M to 9 × 10^−11 M) were used in the protein kinase reaction. The inhibitor binding constants (Kd values) were calculated based on the 10 corresponding residual activities for each compound using Prism 5.04 (Graphpad, San Diego, CA, USA) according to the following formula:Kd = ([K][I]/[C]) where [K] = molar concentration of non-inhibitor bound kinase at equilibrium, [I] = molar concentration of the free inhibitor at equilibrium, [C] = molar concentration of kinase-inhibitor complex at equilibrium.

ALK2 = ALK2 (Homo sapiens, UniProt Q04771); experiment: radiometric protein kinase assay, affinity (Kd); assay type: binding
Chain of ALK2 (Q04771 21-509): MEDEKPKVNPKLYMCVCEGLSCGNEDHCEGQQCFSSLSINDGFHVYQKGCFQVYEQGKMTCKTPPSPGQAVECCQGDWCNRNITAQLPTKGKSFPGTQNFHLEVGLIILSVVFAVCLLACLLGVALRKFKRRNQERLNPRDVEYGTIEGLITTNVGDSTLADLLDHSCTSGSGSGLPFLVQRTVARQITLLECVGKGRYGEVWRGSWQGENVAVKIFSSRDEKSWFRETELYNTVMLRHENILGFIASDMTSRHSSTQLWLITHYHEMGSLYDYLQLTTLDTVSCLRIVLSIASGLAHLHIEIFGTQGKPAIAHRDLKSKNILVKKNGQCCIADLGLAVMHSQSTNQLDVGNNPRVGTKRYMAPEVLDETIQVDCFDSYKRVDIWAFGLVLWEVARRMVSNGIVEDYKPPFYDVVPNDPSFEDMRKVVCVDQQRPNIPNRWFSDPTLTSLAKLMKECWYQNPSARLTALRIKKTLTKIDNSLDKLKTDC
Procedure: as §2

ALK3 = ALK3 (Homo sapiens, UniProt P36894); experiment: radiometric protein kinase assay, affinity (Kd); assay type: binding
Chain of ALK3 (P36894 24-532): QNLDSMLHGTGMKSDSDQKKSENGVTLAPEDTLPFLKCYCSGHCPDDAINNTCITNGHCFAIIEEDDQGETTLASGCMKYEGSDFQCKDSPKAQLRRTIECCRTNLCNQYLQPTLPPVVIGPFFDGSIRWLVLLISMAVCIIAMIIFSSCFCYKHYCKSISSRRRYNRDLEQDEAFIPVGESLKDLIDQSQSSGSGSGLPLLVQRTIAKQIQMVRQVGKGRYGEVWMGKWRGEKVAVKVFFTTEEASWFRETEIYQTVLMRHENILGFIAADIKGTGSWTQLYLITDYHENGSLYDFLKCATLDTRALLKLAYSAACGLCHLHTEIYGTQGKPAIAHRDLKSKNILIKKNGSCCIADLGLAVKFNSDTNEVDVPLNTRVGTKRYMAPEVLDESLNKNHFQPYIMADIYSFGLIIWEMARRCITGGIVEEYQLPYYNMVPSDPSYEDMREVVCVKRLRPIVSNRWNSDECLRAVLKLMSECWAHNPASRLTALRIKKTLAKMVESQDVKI
Procedure: as §2

ALK1 = ALK1 (Homo sapiens, UniProt P37023); experiment: radiometric protein kinase assay, affinity (Kd); assay type: binding
Procedure: The binding interaction profile of the compounds for ALK1–6, ACVR2A, ACVR2B, and TGFβR2 was determined by using radiometric protein kinase assay. For each compound, ten different concentrations (from 3 × 10^−6 M to 9 × 10^−11 M) were used in the protein kinase reaction.

VEGF-induced pVEGFR = experiment: Western blot of VEGF-induced VEGFR phosphorylation in HUVECs; assay type: cell-based, human; settings: VEGF 40 ng/mL
Procedure: EA.hy926 cells or HUVECs were seeded in 6-well plates and starved in a serum-free medium for 4 h after reaching 80% confluence. The compounds were added 30 min prior to stimulation with the corresponding ligands. EA.hy926 cells were incubated with BMP9 (1 ng/mL), BMP6 (50 ng/mL), TGF-β2 (1 ng/mL), or vehicle control for 1 h. For HUVECs, after 4 h starvation, the cells were pre-treated with or without the indicated compounds for 30 min and subsequently stimulated with VEGF (40 ng/mL) for 10 min. The cells were harvested and lysed in radioimmunoprecipitation assay (RIPA) lysis buffer containing 1× complete protease inhibitor cocktail (11836153001, Roche, Basel, Switzerland). The protein concentration was determined using the DC protein assay kit (5000111, Bio-Rad). After adding loading buffer, the samples were boiled and proteins separated by sodium dodecyl sulfate polyacrylamide gel electrophoresis (SDS-PAGE). […] The protein bands were quantified using ImageJ (National Institutes of Health, Bethesda, MD, USA).

T1 sequence (Q9H0K1 whole entry): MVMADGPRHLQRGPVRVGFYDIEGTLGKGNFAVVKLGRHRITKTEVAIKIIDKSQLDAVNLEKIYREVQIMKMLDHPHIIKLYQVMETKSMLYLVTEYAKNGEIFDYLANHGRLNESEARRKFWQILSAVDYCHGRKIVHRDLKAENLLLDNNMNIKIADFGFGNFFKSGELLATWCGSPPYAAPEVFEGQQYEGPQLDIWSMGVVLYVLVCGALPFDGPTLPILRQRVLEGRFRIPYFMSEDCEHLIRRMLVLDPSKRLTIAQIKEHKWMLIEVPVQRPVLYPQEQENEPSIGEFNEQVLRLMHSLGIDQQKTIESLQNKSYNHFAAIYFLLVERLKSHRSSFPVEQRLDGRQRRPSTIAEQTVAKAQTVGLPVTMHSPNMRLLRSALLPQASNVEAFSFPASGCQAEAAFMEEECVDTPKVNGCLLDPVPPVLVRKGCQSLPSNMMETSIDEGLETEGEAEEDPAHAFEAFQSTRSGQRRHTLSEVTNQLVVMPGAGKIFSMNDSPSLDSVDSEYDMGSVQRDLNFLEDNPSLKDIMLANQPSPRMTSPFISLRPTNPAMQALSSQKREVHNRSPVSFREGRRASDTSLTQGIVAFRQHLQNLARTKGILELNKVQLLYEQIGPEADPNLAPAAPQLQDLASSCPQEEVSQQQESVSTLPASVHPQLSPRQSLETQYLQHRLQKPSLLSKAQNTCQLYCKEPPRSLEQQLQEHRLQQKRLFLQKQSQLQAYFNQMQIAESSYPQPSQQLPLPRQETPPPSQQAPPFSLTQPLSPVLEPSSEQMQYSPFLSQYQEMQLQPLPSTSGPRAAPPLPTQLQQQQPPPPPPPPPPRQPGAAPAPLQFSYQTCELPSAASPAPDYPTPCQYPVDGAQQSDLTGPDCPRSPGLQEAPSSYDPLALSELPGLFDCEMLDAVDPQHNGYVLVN

SMILES	inhibition at 0.1 µM (SIK2) [%]	inhibition at 0.1 µM (MAP4K5) [%]	inhibition at 0.1 µM (BRAF) [%]	inhibition at 0.1 µM (MAP4K4) [%]	inhibition at 0.1 µM (FLT3) [%]	inhibition at 0.1 µM (FGFR3) [%]	Kd (ALK5) [nM]	Kd (ALK2) [nM]	Kd (ALK3) [nM]	Kd (ALK1) [nM]	effect on VEGF-induced pVEGFR (VEGF-induced pVEGFR)
CN1CCc2cccc(c2)Nc2nccc(n2)N2CCCc3cc(ccc32)C1 [OD16]	43.8	14.6	5.01	-0.07	4.56	14.8	360	17	55	20	–
CN1CCC(=O)NCCNc2ccn3ncc(c3n2)-c2cccc(c2)C1 [OD29]	1.13	19.1	5.1	13.5	-4.23	49.5	1010	10	1010	6	did not affect
